The text below walks through data of paper PMC11327025 (2024).

The test system of experiment [1] is Apt1-3 (FAM) (DNA, aptamer) CTGTTTGCTACGCAG
Kind of experiment: graphene oxide fluorescence assay. As to conditions: aptamer 0-250 nM titrated against 1.5 μM MNZ, 2 h; abstract prints error 25.59.

Experiment [2] deals with Apt0 (FAM) (DNA, aptamer) CTGTTTGGTAGGCAG
Kind of experiment: graphene oxide fluorescence assay. The following applies: aptamer 0-250 nM titrated against 1.5 μM MNZ, 2 h.

In experiment [3] the test system is Apt8 (FAM) (DNA, aptamer) CTGTTTGCTAGGCAG
Kind of experiment: graphene oxide fluorescence assay. As to conditions: aptamer 0-250 nM titrated against 1.5 μM MNZ, 2 h.

The test system of experiment [4] is Apt11 (FAM) (DNA, aptamer) CTGTTTGGTACGCAG
Nature of the experiment: graphene oxide fluorescence assay. The following applies: aptamer 0-250 nM titrated against 1.5 μM MNZ, 2 h.

Experiment [5] relates to Apt1-3 (DNA, aptamer) CTGTTTGCTACGCAG
Nature of the experiment: exonuclease I/III digestion, SYBR Gold fluorescence. As to conditions: 0.25 μM MNZ, 25 °C, aptamer varied.

The Kd is the constant that tells how readily two partners part at equilibrium. Higher therefore signals weaker binding. As for `Cc1ncc([N+](=O)[O-])n1CCO`, the Kd was determined as 92.60 ± 25.58 nM in experiment [1], 154.28 ± 51.87 nM in experiment [2], 126.18 ± 41.91 nM in experiment [3] and 151.49 ± 56.08 nM in experiment [4]. Moreover, the binding entry in experiment [5] is “yes”.
